Data on five compounds can be found in paper PMC7902330, “Pharmacokinetic study of traditional Japanese Kampo medicine shimotsuto used to treat gynecological diseases in rats” (Journal of Natural Medicines, 2021).

For orientation: AUC(0-t) means exposure summed from dosing to a finite time, without extrapolation to infinity. High values mean more exposure, low ones less exposure. Usually Cmax stands for the maximum level reached in the sampled fluid or tissue. For orientation: Tmax means the time at which the peak concentration occurs. The half-life is how long it takes for the measured level to halve. Read a low half-life as rapid decline. The term EC50 denotes the concentration at which the effect is half-maximal.

Read-outs that look alike come from different tables or passages of the source.

For one data set, the system named is blood viscosity. Also on record: method as in PMID 28299338. Conditions: rat model; cited from earlier work.
In the next data set the target is T1, human TRPM8 (Homo sapiens, UniProt Q7Z2W7).
T1 construct: The full length of each of human transient receptor potential ankyrin 1 (TRPA1); expressed in transfected cells
The data set can be described thus: Ca2+ influx assay for TRP channel agonistic activity in T-REx-293 cells. The format is cell-based. The conditions noted are these: 10 µmol/L test ingredient, positive control 20 µmol/L icilin, read-out: % Activation compared to positive control, TRPM8. The text has this: (§1) The full length of each of human transient receptor potential ankyrin 1 (TRPA1), transient receptor potential cation channel subfamily V member 1 (TRPV1), transient receptor potential cation channel subfamily V member 4 (TRPV4), and transient receptor potential cation channel subfamily M member 8 (TRPM8) coding region was introduced into a pcDNA4/TO vector (Thermo Fisher Scientific, Waltham, MA, USA) and transfected into T-REx-293 cells (Thermo Fisher Scientific) to obtain stable cell lines expressing human TRPA1, TRPV1, TRPV4, and TRPM8. Next, the cells were cultured in Dulbecco’s Modified Eagle Medium containing 10% fetal bovine serum (FBS), 4 mM L-glutamine, and penicillin/streptomycin.
(§2) First, cells were suspended in culture medium with 1 µg/mL of tetracycline and seeded on a poly-D-lysine-coated 96-well plate at a density of 2.5 × 10^4 cells/well overnight. Next, the cells were used for Ca^2+ influx assay, as described previously with minor modifications, using a FLIPR Calcium 5 Assay Kit (Molecular Devices, San Jose, CA, USA). Briefly, cells were incubated in 80 µL of a Ca^2+-chelating dye dissolved in assay buffer at pH 7.4 (Hanks’ Balanced Salt Solution containing 20 mmol/L of 4-(2-hydroxyethyl)-1-piperazineethanesulfonic acid [HEPES]) for 30 min at room temperature. Next, the plates were assayed in a FlexStation 3 microplate reader (Molecular Devices). The fluorescence intensity was traced entirely for 80 s, and the fluorescence baseline was measured 20 s before application of 20 µL of the test compound (final concentration = 10 µmol/L). The response was expressed as percentage activation as follows:
(§3) Relative fluorescence units (RFU) (% activation) = ([RFUmax − RFUbaseline]/RFUbaseline) × 100
(§4) The activity of each test compound against TRPA1, TRPV1, TRPV4, and TRPM8 was represented as the relative enhancement of the Ca^2+ influx of each positive control as follows: 20 µmol/L of allyl isothiocyanate (TRPA1 agonist), 2 µmol/L of capsaicin (TRPV1 agonist), 4 µmol/L of GSK1016790A (TRPV4 agonist), and 20 µmol/L of icilin (TRPM8 agonist). The dose–response curve was fitted to the sigmoidal dose–response equation (Top: maximum response of each compound), and EC50 was calculated using GraphPad prism 7 software (GraphPad, San Diego, CA, USA).
(§5) Calcium ion influx into TRPA1-, TRPV1-, TRPV4-, or TRPM8-expressing T-REx-293 cells was measured to evaluate the agonistic effect of shimotsuto ingredients on TRP channels. The action of 10 µmol/L of each test ingredient was represented as the relative enhancement of the Ca^2+ influx of each positive control, indicated as follows: 20 µmol/L each of allyl isothiocyanate (TRPA1 agonist), 2 µmol/L capsaicin (TRPV1 agonist), 4 µmol/L GSK1016790A (TRPV4 agonist), and 20 µmol/L icilin (TRPM8 agonist). Dose–response tests of shimotsuto ingredients against TRPA1 were performed to calculate EC50.

The target in another data set is T2, human TRPV1 (Homo sapiens, UniProt Q8NER1).
T2 construct: The full length of each of human transient receptor potential ankyrin 1 (TRPA1), transient receptor potential cation channel subfamily V member 1 (TRPV1); expressed in transfected cells
Described as above. Type of data set: cell-based. The conditions noted are these: 10 µmol/L test ingredient, positive control 2 µmol/L capsaicin, read-out: % Activation compared to positive control, TRPV1.
Description: as §1, §2, §3, §4, §5

The target in another data set is T3, human TRPA1 (Homo sapiens, UniProt O75762).
T3 construct: The full length of each of human transient receptor potential ankyrin 1 (TRPA1); expressed in transfected cells
The description is as above. Type of data set: cell-based. The conditions noted are these: for activation at 10 µM: T-REx-293, 10 µmol/L test ingredient, positive control 20 µmol/L allyl isothiocyanate, read-out: % Activation compared to positive control, TRPA1; for Activation of TRPA1 (in words): TRP stable expression cell lines.
Description: as §1, §2, §3, §4, §5

The target of a further data set is T4, human TRPV4 (Homo sapiens, UniProt Q9HBA0).
T4 construct: The full length of each of human transient receptor potential ankyrin 1 (TRPA1); expressed in transfected cells
The data set is described as above. The format is cell-based. Conditions: 10 µmol/L test ingredient, positive control 4 µmol/L GSK1016790A, read-out: % Activation compared to positive control, TRPV4.
Description: as §1, §2, §3, §4, §5

The nature of data set [1]: Pharmacokinetics of ingredients in rat plasma after oral administration of shimotsuto (targeted LC–MS/MS). The format is in vivo. The source says:
The plasma levels of nine ingredients were quantified using quantitative (targeted) analysis. Among them, seven ingredients (catalpol, paeoniflorin, albiflorin, senkyunolide A, butylphthalide, ferulic acid, and ligustilide) are candidate active ingredients in shimotsuto (Table 1). Two ingredients (bergapten and 8-debenzoylpaeoniflorin) are shimotsuto ingredients which were detected and identified in shimotsuto-treated rat plasma using nontargeted LC–HRMS analysis. The nine ingredients were quantified by collecting plasma samples at 0–24 h after shimotsuto administration, pretreating with the following procedures, and then analyzing by targeted LC–MS/MS using selected reaction-monitoring mode. The LC–MS/MS system was composed of a triple quadruple MS (TripleQuad6500; SCIEX, Framingham, MA, USA) and an Agilent 1290 Infinity LC system (Agilent Technologies, Santa Clara, CA, USA). For highly sensitive and selective quantitative (targeted) analysis of each compound, we preliminarily examined optimal pretreatment and analytical LC–MS/MS methods (e.g., MS parameters and LC conditions).
For quantification of catalpol, paeoniflorin, albiflorin, ferulic acid, and senkyunolide A in plasma, 100 µL of plasma sample was mixed with 20 µL of methanol (or working solution) and 20 µL of internal standard (niflumic acid or swertiamarin) and pretreated by deproteinization using 500 µL of acetonitrile. […] Finally, the dried residue was dissolved in 60 µL of the specific HPLC mobile phase used for analysis and then a 10 μL aliquot was injected into the LC–MS/MS system.
For quantification of ligustilide and butylphthalide in plasma, 200 µL of plasma sample was mixed with 40 µL of methanol (or working solution) and 40 µL of internal standard (imperatorin) and centrifuged at 15000×g for 10 min at 4 °C, the whole volume of supernatant was collected and subsequently pretreated by solid-phase extraction using Oasis HLB Extraction Cartridge (Waters, Milford, MA, USA). The acetonitrile elutes were collected and then dried under a steam of nitrogen gas. Finally, the dried residue was dissolved in 70 µL of the specific HPLC mobile phase and injected 20 µL into the LC–MS/MS system.
For quantification of bergapten in plasma, 100 µL of plasma sample was mixed with 20 µL of methanol (or working solution) and 20 µL of internal standard (niflumic acid) and pretreated by solid-phase extraction using an Oasis HLB 96-well µElution plate. Next, the mixied elutes of acetonitrile and isopropyl alcohol (1:1, v/v) were collected and then dried under a steam of nitrogen gas. Finally, the dried residue was dissolved in 60 µL of the specific HPLC mobile phase and injected 10 µL into the LC–MS/MS system.
For quantification of 8-debenzoylpaeoniflorin in plasma, 100 µL of plasma sample was mixed with 20 µL of methanol (or working solution) and 20 µL of internal standard (niflumic acid) and pretreated by liquid–liquid extraction using 500 µL of ethyl acetate. […] The dried residue was dissolved in 60 µL of the specific HPLC mobile phase and injected 10 µL into the LC–MS/MS system.
In addition, pharmacokinetic parameters of the shimotsuto ingredients detected in the plasma, such as the maximum concentration (Cmax) and area under the plasma level–time curve (AUC0−last), were calculated by noncompartmental moment analysis using Phoenix WinNonlin software (Certara L.P., St. Louis, MO, USA).

The conditions of data set [2]: cited from earlier work.
On the set-up of data set [3]: method as in PMID 31514313. Conditions: ref 18; cited from earlier work.
A short description of data set [4]: Plasma levels of catalpol in humans after goshajinkigan administration (unpublished data). The format is in vivo, human. The conditions noted are these: after goshajinkigan (including Rehmanniae Radix) administration.
The test system of data set [5] is transient receptor potential ankyrin 1 (TRPA1). Details: method as in PMID 21894528. Conditions: ref 15; cited from earlier work.
Details of data set [6]: method as in PMID 8932691. The conditions noted are these: cited from earlier work.

T1 sequence (Q7Z2W7 whole entry): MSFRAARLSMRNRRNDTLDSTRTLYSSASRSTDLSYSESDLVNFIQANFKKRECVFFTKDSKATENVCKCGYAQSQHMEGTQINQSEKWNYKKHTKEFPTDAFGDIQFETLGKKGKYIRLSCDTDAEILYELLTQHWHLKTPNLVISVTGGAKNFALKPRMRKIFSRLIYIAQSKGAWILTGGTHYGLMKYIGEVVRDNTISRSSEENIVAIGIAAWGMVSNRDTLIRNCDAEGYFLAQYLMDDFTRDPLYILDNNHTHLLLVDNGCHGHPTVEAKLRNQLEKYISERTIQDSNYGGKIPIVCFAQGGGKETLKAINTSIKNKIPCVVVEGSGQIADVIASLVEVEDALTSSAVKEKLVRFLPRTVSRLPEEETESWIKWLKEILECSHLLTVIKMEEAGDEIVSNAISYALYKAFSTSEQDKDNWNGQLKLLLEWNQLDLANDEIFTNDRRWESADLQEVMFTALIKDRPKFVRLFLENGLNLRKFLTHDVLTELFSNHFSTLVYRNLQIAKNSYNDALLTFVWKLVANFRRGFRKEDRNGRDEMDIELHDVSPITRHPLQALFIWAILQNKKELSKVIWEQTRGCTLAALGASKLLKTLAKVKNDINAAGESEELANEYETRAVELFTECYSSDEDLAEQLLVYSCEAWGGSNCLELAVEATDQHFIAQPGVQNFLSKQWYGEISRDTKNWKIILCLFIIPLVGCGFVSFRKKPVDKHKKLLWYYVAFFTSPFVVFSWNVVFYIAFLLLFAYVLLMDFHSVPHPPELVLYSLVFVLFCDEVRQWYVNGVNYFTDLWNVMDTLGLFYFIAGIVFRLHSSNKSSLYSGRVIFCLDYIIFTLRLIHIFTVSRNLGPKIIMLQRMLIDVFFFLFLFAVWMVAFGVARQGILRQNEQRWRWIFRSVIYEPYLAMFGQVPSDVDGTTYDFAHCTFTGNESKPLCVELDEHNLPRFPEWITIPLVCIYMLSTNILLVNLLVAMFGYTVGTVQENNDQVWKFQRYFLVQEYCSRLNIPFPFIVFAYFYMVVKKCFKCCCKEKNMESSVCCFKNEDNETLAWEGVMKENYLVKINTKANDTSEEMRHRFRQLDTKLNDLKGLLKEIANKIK
T3 sequence (O75762 whole entry): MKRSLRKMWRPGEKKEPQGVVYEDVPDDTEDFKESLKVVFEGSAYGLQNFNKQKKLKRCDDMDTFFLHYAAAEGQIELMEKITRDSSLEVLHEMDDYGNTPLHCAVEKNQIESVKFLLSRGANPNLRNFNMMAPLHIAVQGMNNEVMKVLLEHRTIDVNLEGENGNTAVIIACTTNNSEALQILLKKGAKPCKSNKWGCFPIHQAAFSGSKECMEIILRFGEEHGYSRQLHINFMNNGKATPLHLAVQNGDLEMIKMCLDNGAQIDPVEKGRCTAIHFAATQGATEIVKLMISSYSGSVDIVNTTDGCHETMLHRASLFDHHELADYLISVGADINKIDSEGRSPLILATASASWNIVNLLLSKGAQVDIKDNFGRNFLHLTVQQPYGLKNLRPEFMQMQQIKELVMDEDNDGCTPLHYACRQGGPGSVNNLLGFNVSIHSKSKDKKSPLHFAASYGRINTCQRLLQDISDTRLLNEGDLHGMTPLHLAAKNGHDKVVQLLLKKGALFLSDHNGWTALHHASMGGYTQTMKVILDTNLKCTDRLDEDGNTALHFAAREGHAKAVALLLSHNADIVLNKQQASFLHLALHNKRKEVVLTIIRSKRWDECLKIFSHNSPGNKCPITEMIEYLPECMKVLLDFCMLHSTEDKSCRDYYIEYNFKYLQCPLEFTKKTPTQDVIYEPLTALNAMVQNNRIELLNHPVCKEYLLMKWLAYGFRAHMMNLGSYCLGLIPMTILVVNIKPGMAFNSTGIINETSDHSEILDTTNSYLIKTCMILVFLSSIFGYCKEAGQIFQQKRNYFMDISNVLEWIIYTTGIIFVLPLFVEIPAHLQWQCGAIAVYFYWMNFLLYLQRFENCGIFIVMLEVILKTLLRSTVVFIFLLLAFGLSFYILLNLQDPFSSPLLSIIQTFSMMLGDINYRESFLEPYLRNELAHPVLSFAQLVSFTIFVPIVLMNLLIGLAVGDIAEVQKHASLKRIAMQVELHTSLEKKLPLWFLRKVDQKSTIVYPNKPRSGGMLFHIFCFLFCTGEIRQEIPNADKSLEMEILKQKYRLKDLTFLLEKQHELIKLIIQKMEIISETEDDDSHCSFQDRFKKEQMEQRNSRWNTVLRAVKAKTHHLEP
T4 sequence (Q9HBA0 whole entry): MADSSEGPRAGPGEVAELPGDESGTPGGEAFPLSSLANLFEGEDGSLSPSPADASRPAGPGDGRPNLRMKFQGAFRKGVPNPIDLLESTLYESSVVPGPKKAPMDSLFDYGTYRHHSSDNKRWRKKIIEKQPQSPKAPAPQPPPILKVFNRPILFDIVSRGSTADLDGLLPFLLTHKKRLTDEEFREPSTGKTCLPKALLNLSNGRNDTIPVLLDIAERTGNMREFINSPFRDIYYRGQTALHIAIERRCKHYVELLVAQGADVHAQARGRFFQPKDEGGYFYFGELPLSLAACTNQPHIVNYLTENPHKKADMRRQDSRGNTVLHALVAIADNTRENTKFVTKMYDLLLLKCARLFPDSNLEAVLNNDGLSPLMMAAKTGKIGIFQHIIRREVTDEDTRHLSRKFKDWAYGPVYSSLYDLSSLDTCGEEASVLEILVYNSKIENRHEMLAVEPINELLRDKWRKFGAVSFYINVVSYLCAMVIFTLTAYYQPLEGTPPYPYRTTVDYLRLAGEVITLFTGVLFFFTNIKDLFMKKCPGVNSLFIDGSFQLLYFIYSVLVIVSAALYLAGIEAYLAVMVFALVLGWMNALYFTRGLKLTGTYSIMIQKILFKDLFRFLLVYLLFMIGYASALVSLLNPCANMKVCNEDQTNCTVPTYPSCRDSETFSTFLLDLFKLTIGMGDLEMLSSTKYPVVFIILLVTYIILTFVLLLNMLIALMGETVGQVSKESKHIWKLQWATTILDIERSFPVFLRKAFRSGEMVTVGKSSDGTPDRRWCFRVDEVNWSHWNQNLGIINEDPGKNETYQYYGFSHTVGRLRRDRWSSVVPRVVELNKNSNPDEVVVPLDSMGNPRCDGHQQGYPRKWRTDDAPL
T2 sequence (Q8NER1 whole entry): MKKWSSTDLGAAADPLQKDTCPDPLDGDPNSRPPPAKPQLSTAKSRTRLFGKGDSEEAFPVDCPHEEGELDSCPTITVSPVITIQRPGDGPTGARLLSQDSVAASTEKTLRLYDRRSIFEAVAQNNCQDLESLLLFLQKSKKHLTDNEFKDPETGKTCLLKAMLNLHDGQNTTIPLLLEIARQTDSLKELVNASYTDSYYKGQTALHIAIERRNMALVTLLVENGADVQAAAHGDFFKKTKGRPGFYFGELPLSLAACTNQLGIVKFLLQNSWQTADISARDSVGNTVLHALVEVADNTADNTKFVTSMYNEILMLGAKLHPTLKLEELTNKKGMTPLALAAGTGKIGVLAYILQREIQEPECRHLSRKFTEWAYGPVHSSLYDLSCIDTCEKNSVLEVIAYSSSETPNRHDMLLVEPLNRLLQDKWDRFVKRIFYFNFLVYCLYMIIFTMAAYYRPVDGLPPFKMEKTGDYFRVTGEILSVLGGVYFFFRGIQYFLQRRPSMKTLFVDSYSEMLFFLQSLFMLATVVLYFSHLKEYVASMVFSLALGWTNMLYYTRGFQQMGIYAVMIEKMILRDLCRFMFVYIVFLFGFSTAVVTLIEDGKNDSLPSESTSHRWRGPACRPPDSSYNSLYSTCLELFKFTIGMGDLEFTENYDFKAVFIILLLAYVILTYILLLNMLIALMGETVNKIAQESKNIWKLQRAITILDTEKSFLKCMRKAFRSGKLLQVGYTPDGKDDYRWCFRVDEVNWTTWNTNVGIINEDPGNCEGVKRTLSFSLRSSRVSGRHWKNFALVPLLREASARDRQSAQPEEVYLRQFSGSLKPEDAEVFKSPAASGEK

As to `CC12CC(O)C3CC1(OC1OC(CO)C(O)C(O)C1O)C3(COC(=O)c1ccccc1)C(=O)O2` (stereo not drawn) [Albiflorin], the “Pharmacological action related to improvement of blood and the circulatory system” value (from here on “Pharmacological action related”) in the data set on blood viscosity was “Reduction of blood viscosity via antithrombotic effect in rat model [12]”. The activation at 10 µM at human TRPM8 turned out to be 1%. For the same compound, the activation at 10 µM at human TRPV1 amounted to 0%. Besides, the activation at 10 µM on human TRPA1 was 1%. The activation at 10 µM at human TRPV4 was -1%. Besides, in data set [1] (rat, in vivo, po, 1 g/kg), the AUC(0-t) turned out to be 24.2 ng·h/mL, the peak level (Cmax) was 6.34 ng/mL, the Tmax is 30 min and the half-life was 163 min.
As to `OC[C@H]1O[C@@H](O[C@@H]2OC=C[C@H]3[C@H](O)[C@@H]4O[C@]4(CO)[C@@H]23)[C@H](O)[C@@H](O)[C@@H]1O` [Catalpol], in data set [2] (ref 11), the “Pharmacological action related” value is “Protective effect on vascular endothelial function via multiple actions such as induction of serum nitric oxide [11]”. In addition, the activation at 10 µM at human TRPM8 is 3%; on human TRPV1 it was 0%; at human TRPA1 it was 2%; at human TRPV4 it was 0%. In [3], the Absolute bioavailability is given as 66.7%. Besides, the “Plasma levels in humans” value in data set [4] was “quite low”. Besides, the AUC(0-t) in [1] (rat, in vivo, po, 1 g/kg) came to 2030 ng·h/mL. This compound also returned a Cmax in data set [1] (rat, in vivo, po, 1 g/kg) of 1360 ng/mL. Moreover, the time to peak (Tmax) in data set [1] (rat, in vivo, po, 1 g/kg) is 60 min. For the same compound, in data set [1] (rat, in vivo, po, 1 g/kg), the half-life was 38.6 min.
On to `CCC/C=C1\OC(=O)C2=C1CCC=C2` [Ligustilide], for which the “Pharmacological action related” value is “vasorelaxation” in data set [2] (ref 8); “vasorelaxation and increased blood flow effects” in [2] (ref 13); “Activation of transient receptor potential ankyrin 1 (TRPA1; which plays a role in vasodilation)” in data set [5]. The activation at 10 µM was 18% at human TRPM8, 0% at human TRPV1, 87% at human TRPA1 and -1% on human TRPV4. On human TRPA1, the “Activation of TRPA1 (in words)” value was “potently activated”. For the same compound, on human TRPA1 (dose–response test, Ca2+ influx, read-out: EC50 against TRPA1), the 50% effective concentration (EC50) was determined as 1300 nM. The same compound had an AUC(0-t) in data set [1] (rat, in vivo, po, 1 g/kg) of 0.916 ng·h/mL. In addition, the Cmax in data set [1] (rat, in vivo, po, 1 g/kg) was determined as 2.83 ng/mL. Also, the Tmax in data set [1] (rat, in vivo, po, 1 g/kg) amounted to 30 min.
For `C[C@@]12C[C@@]3(O)O[C@@H](O1)[C@]1(COC(=O)c4ccccc4)[C@H]3C[C@@]12O[C@@H]1O[C@H](CO)[C@@H](O)[C@H](O)[C@H]1O` [Paeoniflorin], the “Pharmacological action related” value in the data set with blood viscosity was “Reduction of blood viscosity via antithrombotic effect in rat model [12]”. The activation at 10 µM was 0% on human TRPM8, -1% on human TRPV1, 1% at human TRPA1 and 0% on human TRPV4. For the same compound, the Cumulative biliary excretion in data set [6] (after oral administration of paeoniflorin, within 24 h) is reported as 1.3 % of the dose. For the same compound, the Bioavailability result in data set [6] (in rats) was “low”. For the same compound, in data set [1] (rat plasma, oral shimotsuto 1 g/kg, from mean concentration (n = 3) per time point), the Tmax is 30 min. Moreover, the AUC(0-t) in data set [1] (rat, in vivo, po, 1 g/kg) turned out to be 83.6 ng·h/mL. In data set [1] (rat, in vivo, po, 1 g/kg), the highest level (Cmax) was 36.3 ng/mL. In [1] (rat, in vivo, po, 1 g/kg), this compound gave a half-life of 88.8 min.
On to `CCCC[C@@H]1OC(=O)C2=C1CCC=C2` [Senkyunolide A], for which the “Pharmacological action related” value was “Vasorelaxation” in data set [2] (ref 8); “vasorelaxation and increased blood flow effects” in data set [2] (ref 13). Moreover, the activation at 10 µM at human TRPM8 is -1%; at human TRPV1, 1%; on human TRPA1, 86%; at human TRPV4, 0%. This compound came in with an EC50 at human TRPA1 of 1000 nM. The “Activation of TRPA1 (in words)” value on human TRPA1 is reported as “potently activated”. The same compound registered an AUC(0-t) in data set [1] (rat, in vivo, po, 1 g/kg) of 8.04 ng·h/mL. This compound also showed a maximum concentration (Cmax) in data set [1] (rat, in vivo, po, 1 g/kg) of 28.9 ng/mL. Moreover, the Tmax in data set [1] (rat, in vivo, po, 1 g/kg) was 15 min.
